Assay in all cases: KinaseProfiler enzyme profiling
Holding throughout (assay type): biochemical

Assay [1] addresses T1, CDK5/p35(h) (Homo sapiens, UniProt Q00535).
T1 construct: purchased Eurofins KinaseProfiler
As for the experimental part: (§1) Enzyme profiling services were provided by KinaseProfiler™ (Eurofin, Brussels, Belgium). The concentration of erianin was 100 nM, and total 70 kinases were tested in this in vitro screening and profiling services (2 repetitions). For more details, refer to the manufacturer’s instructions (www.eurofinsdiscoveryservices.com).

Assay [2] addresses T2, CK1γ3(h) (Homo sapiens, UniProt Q9Y6M4).
T2 construct: purchased Eurofins KinaseProfiler
As for the experimental part: as §1

The target of assay [3] is T3, CaMKIIβ(h) (Homo sapiens, UniProt Q13554).
T3 construct: purchased Eurofins KinaseProfiler
As for the experimental part:
as §1

Assay [4] deals with T4, cKit(h) (Homo sapiens, UniProt P10721).
T4 construct: purchased Eurofins KinaseProfiler
The protocol: as §1

Assay [5] has as its target T5, NIM1(h) (Homo sapiens, UniProt Q8IY84).
T5 construct: purchased Eurofins KinaseProfiler
As for the experimental part: as §1

The target in assay [6] is T6, Axl(h) (Homo sapiens, UniProt P30530).
T6 construct: purchased Eurofins KinaseProfiler
As for the experimental part:
as §1

Assay [7] concerns the target T7, DYRK2(h) (Homo sapiens, UniProt Q92630).
T7 construct: purchased Eurofins KinaseProfiler
As for the experimental part:
as §1

The target in assay [8] is T8, EphA2(h) (Homo sapiens, UniProt P29317).
T8 construct: purchased Eurofins KinaseProfiler
The protocol: as §1

Assay [9] addresses T9, CK1γ2(h) (Homo sapiens, UniProt P78368).
T9 construct: purchased Eurofins KinaseProfiler
The protocol: as §1

For assay [10], the target named is T10, EGFR(L858R)(h) (Homo sapiens, UniProt P00533, L858R).
T10 construct: purchased Eurofins KinaseProfiler
As for the experimental part: as §1

In assay [11] the target is T11, CSK(h) (Homo sapiens, UniProt P41240).
T11 construct: purchased Eurofins KinaseProfiler
The protocol: as §1

Assay [12] deals with T12, HIPK2(h) (Homo sapiens, UniProt Q9H2X6).
T12 construct: purchased Eurofins KinaseProfiler
As for the experimental part:
as §1

Assay [13] deals with T13, HIPK3(h) (Homo sapiens, UniProt Q9H422).
T13 construct: purchased Eurofins KinaseProfiler
T13 sequence (Q9H422 whole entry): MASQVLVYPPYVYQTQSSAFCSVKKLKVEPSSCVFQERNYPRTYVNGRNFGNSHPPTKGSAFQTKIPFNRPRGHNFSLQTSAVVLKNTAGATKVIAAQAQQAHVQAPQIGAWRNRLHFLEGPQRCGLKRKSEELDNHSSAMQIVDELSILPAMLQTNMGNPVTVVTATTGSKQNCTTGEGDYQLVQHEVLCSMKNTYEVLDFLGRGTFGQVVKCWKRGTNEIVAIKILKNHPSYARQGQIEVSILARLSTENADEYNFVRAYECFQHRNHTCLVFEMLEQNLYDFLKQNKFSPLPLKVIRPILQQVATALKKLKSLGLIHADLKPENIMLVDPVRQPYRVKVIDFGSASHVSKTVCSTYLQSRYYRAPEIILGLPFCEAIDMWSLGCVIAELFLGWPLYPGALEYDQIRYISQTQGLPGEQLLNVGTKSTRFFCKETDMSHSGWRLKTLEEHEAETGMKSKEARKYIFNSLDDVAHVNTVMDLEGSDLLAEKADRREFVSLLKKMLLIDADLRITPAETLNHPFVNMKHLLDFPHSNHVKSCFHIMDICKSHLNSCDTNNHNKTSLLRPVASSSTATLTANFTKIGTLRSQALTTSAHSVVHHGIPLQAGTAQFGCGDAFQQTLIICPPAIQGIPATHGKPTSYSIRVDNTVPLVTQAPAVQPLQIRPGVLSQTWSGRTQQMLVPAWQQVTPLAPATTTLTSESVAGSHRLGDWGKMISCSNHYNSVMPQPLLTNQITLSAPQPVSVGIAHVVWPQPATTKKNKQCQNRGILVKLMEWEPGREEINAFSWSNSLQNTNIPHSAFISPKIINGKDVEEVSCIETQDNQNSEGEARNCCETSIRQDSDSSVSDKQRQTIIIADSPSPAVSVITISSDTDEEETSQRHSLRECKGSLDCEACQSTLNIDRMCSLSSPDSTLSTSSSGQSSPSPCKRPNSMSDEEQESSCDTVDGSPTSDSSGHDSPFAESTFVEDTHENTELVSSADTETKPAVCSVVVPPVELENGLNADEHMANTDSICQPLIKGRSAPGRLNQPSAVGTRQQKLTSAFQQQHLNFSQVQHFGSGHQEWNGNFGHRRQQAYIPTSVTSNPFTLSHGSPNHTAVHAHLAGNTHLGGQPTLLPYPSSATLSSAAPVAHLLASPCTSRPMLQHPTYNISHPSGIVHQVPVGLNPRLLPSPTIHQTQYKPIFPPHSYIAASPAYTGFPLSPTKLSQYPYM
As for the experimental part:
as §1

Assay [14] has as its target T14, Ros(h) (Homo sapiens, UniProt P08922).
T14 construct: purchased Eurofins KinaseProfiler
Conditions: 100 nM. As for the experimental part:
as §1

For assay [15], the target named is T15, A-Raf(h) (Homo sapiens, UniProt P10398).
T15 construct: purchased Eurofins KinaseProfiler
Conditions: 100 nM. As for the experimental part: as §1

The target of assay [16] is T16, EphA1(h) (Homo sapiens, UniProt P21709).
T16 construct: purchased Eurofins KinaseProfiler
The note with it: 100 nM. As for the experimental part: as §1

For assay [17], the target named is T17, Fgr(h) (Homo sapiens, UniProt P09769).
T17 construct: purchased Eurofins KinaseProfiler
Conditions: 100 nM. The protocol: as §1

Assay [18] has as its target T18, ZIPK(h) (Homo sapiens, UniProt O43293).
T18 construct: purchased Eurofins KinaseProfiler
Conditions: 100 nM. The protocol:
as §1

Assay [19] has as its target T19, CaMKIIδ(h) (Homo sapiens, UniProt Q13557).
T19 construct: purchased Eurofins KinaseProfiler
The note with it: 100 nM. As for the experimental part:
as §1

The target in assay [20] is T20, EphA5(h) (Homo sapiens, UniProt P54756).
T20 construct: purchased Eurofins KinaseProfiler
Conditions: 100 nM. The protocol:
as §1

Assay [21] concerns the target T21, SGK(h) (Homo sapiens, UniProt O00141).
T21 construct: purchased Eurofins KinaseProfiler
The note with it: 100 nM. As for the experimental part: as §1

For assay [22], the target named is T22, BTK(h) (Homo sapiens, UniProt Q06187).
T22 construct: purchased Eurofins KinaseProfiler
Conditions: 100 nM. The protocol: as §1

Assay [23] deals with T23, Flt1(h) (Homo sapiens, UniProt P17948).
T23 construct: purchased Eurofins KinaseProfiler
The note with it: 100 nM. The protocol:
as §1

Assay [24] concerns the target T24, eEF-2K(h) (Homo sapiens, UniProt O00418).
T24 construct: purchased Eurofins KinaseProfiler
Conditions: 100 nM. As for the experimental part: as §1

For assay [25], the target named is T25, EphB1(h) (Homo sapiens, UniProt P54762).
T25 construct: purchased Eurofins KinaseProfiler
T25 sequence (P54762 18-984): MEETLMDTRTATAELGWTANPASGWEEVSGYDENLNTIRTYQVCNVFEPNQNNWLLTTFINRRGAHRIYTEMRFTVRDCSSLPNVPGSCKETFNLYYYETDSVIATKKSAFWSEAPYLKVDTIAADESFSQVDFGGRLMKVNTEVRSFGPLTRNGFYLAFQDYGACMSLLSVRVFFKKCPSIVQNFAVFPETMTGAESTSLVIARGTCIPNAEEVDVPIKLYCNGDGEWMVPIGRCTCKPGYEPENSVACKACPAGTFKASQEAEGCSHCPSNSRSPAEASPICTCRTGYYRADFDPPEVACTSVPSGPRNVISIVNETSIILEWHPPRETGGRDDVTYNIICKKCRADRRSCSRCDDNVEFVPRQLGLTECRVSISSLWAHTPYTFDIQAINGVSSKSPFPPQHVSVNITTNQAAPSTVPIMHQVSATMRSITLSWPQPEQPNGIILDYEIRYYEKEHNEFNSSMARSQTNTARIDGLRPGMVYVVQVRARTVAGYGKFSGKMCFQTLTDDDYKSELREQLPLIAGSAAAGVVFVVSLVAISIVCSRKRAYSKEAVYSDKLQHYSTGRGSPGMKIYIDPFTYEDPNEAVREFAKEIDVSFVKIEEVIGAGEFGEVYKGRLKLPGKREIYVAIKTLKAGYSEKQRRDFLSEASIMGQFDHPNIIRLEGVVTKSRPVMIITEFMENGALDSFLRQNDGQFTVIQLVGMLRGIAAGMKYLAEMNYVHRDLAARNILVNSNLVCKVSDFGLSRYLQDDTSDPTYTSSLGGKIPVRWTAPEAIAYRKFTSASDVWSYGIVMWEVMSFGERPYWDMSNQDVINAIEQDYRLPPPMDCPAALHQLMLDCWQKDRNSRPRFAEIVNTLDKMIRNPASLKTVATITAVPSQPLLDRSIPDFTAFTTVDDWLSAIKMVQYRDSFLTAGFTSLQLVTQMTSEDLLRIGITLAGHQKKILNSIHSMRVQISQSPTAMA
Conditions: 100 nM. As for the experimental part:
as §1

For assay [26], the target named is T26, MEK2(h) (Homo sapiens, UniProt P36507).
T26 construct: purchased Eurofins KinaseProfiler
T26 sequence (P36507 whole entry): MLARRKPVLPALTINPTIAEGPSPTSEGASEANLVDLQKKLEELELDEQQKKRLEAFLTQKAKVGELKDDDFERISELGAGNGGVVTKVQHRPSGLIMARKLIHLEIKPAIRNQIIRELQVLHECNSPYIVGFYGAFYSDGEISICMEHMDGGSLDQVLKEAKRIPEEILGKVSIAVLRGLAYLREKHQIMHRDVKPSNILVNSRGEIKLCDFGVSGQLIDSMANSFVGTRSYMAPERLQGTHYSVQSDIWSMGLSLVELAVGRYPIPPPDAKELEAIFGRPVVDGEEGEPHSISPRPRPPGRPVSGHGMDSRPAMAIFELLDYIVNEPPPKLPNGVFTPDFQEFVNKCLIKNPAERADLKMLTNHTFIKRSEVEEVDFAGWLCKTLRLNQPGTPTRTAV
The protocol:
as §1

Assay [27] concerns the target T27, Rsk2(h) (Homo sapiens, UniProt P51812).
T27 construct: purchased Eurofins KinaseProfiler
The protocol:
as §1

For assay [28], the target named is T28, Pim-2(h) (Homo sapiens, UniProt Q9P1W9).
T28 construct: purchased Eurofins KinaseProfiler
The note with it: 100 nM. As for the experimental part: as §1

The target in assay [29] is T29, TAO3(h) (Homo sapiens, UniProt Q9H2K8).
T29 construct: purchased Eurofins KinaseProfiler
As for the experimental part:
as §1

Assay [30] addresses T30, NEK3(h) (Homo sapiens, UniProt P51956).
T30 construct: purchased Eurofins KinaseProfiler
As for the experimental part:
as §1

For assay [31], the target named is T31, PAK5(h) (Homo sapiens, UniProt Q9P286).
T31 construct: purchased Eurofins KinaseProfiler
The protocol: as §1

Assay [32] addresses T32, ErbB2(h) (Homo sapiens, UniProt P04626).
T32 construct: purchased Eurofins KinaseProfiler
The protocol: as §1

For assay [33], the target named is T33, SAPK2b(h) (Homo sapiens, UniProt Q15759).
T33 construct: purchased Eurofins KinaseProfiler
T33 sequence (Q15759 whole entry): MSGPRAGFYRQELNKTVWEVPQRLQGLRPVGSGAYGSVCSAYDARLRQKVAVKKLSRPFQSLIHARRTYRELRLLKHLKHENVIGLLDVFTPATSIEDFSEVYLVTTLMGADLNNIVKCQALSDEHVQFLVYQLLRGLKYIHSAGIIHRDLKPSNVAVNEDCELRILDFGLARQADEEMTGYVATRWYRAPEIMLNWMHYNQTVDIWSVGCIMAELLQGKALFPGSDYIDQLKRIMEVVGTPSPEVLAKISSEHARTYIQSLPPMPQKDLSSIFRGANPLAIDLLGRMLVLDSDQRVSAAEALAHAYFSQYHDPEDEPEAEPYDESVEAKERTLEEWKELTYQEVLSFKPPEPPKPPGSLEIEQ
The protocol: as §1

Assay [34] addresses T34, NEK6(h) (Homo sapiens, UniProt Q9HC98).
T34 construct: purchased Eurofins KinaseProfiler
As for the experimental part: as §1

For assay [35], the target named is T35, MST1(h) (Homo sapiens, UniProt Q13043).
T35 construct: purchased Eurofins KinaseProfiler
The protocol: as §1

Assay [36] deals with T36, DMPK(h) (Homo sapiens, UniProt Q09013).
T36 construct: purchased Eurofins KinaseProfiler
T36 sequence (Q09013 whole entry): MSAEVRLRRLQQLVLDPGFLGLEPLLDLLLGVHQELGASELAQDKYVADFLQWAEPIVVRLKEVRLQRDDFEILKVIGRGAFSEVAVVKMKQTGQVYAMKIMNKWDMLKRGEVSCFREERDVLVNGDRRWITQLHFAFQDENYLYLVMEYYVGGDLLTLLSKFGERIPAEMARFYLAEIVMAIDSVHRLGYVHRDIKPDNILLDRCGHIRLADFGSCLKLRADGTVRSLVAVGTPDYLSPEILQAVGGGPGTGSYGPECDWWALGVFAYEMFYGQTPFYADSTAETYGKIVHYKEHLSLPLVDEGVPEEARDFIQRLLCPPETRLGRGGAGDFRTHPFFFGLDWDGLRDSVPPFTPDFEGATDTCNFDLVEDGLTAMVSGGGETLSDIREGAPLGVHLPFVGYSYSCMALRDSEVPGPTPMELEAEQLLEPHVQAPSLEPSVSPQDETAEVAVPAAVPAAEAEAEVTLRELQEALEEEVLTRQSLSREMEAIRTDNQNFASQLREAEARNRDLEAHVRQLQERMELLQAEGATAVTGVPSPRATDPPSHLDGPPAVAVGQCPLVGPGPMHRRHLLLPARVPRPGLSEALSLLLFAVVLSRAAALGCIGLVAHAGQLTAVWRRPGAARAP
As for the experimental part: as §1

In assay [37] the target is T37, MST4(h) (Homo sapiens, UniProt Q9P289).
T37 construct: purchased Eurofins KinaseProfiler
The protocol:
as §1

The target of assay [38] is T38, NEK7(h) (Homo sapiens, UniProt Q8TDX7).
T38 construct: purchased Eurofins KinaseProfiler
As for the experimental part:
as §1

Assay [39] concerns the target T39, PAK6(h) (Homo sapiens, UniProt Q9NQU5).
T39 construct: purchased Eurofins KinaseProfiler
As for the experimental part: as §1

The target of assay [40] is T40, CDK18/cyclinY(h) (Homo sapiens, UniProt Q07002).
T40 construct: purchased Eurofins KinaseProfiler
The protocol: as §1

Assay [41] has as its target T41, STK25(h) (Homo sapiens, UniProt O00506).
T41 construct: purchased Eurofins KinaseProfiler
As for the experimental part: as §1

Assay [42] addresses T42, TAO1(h) (Homo sapiens, UniProt Q7L7X3).
T42 construct: purchased Eurofins KinaseProfiler
The protocol: as §1

T7 sequence (Q92630 whole entry): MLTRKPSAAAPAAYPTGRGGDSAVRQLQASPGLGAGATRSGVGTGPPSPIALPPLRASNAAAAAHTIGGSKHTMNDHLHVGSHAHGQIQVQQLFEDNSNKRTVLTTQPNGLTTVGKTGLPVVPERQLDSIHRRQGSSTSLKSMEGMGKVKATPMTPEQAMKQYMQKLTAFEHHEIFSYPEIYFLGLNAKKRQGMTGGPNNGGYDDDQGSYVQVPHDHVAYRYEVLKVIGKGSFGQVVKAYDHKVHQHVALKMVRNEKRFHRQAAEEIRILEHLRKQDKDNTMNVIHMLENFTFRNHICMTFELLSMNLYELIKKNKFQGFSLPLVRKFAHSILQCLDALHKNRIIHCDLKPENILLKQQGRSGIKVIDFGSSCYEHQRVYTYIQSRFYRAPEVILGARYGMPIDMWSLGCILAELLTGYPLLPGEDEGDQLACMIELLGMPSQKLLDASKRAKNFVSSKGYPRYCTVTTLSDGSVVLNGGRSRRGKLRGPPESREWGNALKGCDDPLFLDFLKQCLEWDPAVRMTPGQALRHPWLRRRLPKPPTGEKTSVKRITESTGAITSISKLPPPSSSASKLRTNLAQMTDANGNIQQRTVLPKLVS
T18 sequence (O43293 whole entry): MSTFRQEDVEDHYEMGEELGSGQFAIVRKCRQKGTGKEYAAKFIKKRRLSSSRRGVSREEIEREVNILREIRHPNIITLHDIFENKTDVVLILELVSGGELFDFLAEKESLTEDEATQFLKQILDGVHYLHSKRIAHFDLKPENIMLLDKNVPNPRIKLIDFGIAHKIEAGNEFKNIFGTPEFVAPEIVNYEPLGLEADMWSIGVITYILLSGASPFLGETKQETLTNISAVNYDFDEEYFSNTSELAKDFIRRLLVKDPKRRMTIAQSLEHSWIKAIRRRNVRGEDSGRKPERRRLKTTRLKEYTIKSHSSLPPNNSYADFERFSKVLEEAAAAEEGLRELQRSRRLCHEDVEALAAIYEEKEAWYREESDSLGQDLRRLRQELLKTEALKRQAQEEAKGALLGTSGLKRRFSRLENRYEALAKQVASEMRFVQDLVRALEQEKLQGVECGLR
T34 sequence (Q9HC98 whole entry): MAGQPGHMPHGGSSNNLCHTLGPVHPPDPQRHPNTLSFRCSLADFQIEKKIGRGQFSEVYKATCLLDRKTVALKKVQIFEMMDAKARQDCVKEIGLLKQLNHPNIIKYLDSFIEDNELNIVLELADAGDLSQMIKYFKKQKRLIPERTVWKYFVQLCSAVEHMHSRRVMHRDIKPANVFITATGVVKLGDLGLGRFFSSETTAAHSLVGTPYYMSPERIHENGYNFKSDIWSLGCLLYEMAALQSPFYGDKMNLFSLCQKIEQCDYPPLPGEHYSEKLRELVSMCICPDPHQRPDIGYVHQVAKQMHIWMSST

Take `COc1cc2oc(-c3ccc(O)c(O)c3)cc(=O)c2c(O)c1OC` [Cirsiliol]: the activity at 10 µM in [1] was determined as 99%; in assay [2] it was 104%; in [3], 104%; in [4], 93%; in assay [5], 121%; in [6] it was 97%. In addition, the activity at 10 µM amounted to 97% in assay [7]; 97% in assay [8]; 108% in assay [9]; 107% in assay [10]; 100% in assay [11]; 100% in [12]. Besides, the activity at 10 µM in assay [13] came to 106%.

Consider `COc1ccc(CCc2cc(OC)c(OC)c(OC)c2)cc1O` [Erianin], for which the activity at 0.1 µM in assay [14] turned out to be 103%; in assay [15], 109%; in [16], 101%; in assay [17], 91%; in assay [18] it was 111%; in assay [19], 103%. Also, the activity at 0.1 µM in assay [20] worked out at 108%; in [21], 122%; in assay [22] it was 104%; in assay [23], 117%; in assay [24], 91%; in assay [25], 91%. The activity at 0.1 µM in [26] came to 83%; in assay [27] it was 106%; in assay [28] it was 103%.

Consider `C=C1C(=O)[C@]23[C@H](O)[C@H]1CC[C@H]2[C@@]12CO[C@]3(O)[C@@H](O)[C@@H]1C(C)(C)CC[C@@H]2O` [Oridonin], for which the activity at 10 µM in assay [29] is 66%; in assay [30], 64%; in assay [31] it was 98%; in assay [32], 112%; in [33] it was 102%; in assay [34], 99%. In addition, the activity at 10 µM in assay [35] is 65%; in assay [36], 104%; in assay [37], 140%; in assay [38], 101%; in assay [39] it was 104%; in assay [40], 65%. The figures for the activity at 10 µM in assay [41] and in [42] were 105% and 64%, respectively.

Values taken from article PMC9986241 (Signal Transduction and Targeted Therapy, 2023).
